Results on 16 molecules are retold here after US8846661B2, “Diazahomoadamantane derivatives and methods of use thereof” (AbbVie Inc., priority 2009, dated 2014).

pKi: −log10 of the molar value.

As a reminder, the pKi is the Ki on a negative log10 scale, so that one unit is a factor of ten. A high value points to a low Ki.

This assay concerns the target α7 NNR (UniProt Q05941). Conditions: [3H]-DPPB binding.
Procedure: [^3H]-DPPB, [^3H]-(S,S)-2,2-dimethyl-5-(6-phenyl-pyridazin-3-yl)-5-aza-2-azonia-bicyclo[2.2.1]heptane iodide, binding to the α7 NNR subtype was determined using membrane enriched fractions from rat brain minus cerebellum or human cortex (ABS Inc., Wilmington, Del.) as described in Anderson, D. J.; et al., J. Pharmacol. Exp. Ther. 2008, 324: 179-187 which is incorporated herein by reference. Briefly, pellets were thawed at 4° C., washed and resuspended with a Polytron at a setting of 7 in 30 volumes of BSS-Tris buffer (120 mM NaCl, 5 mM KCl, 2 mM CaCl2, 2 mM MgCl2, and 50 mM Tris-C1, pH 7.4, 4° C.). Seven log-dilution concentrations of test compounds containing 100-200 μg of protein, and 0.5 nM [^3H]-DPPB (62.8 Ci/mmol; R46V, Abbott Labs) were incubated in a final volume of 500 μL for 75 minutes at 4° C. in duplicate. Non-specific binding was determined in the presence of 10 μM methyllycaconitine. Bound radioactivity was collected on Millipore MultiScreen® harvest plates FB presoaked with 0.3% polyethyleneimine using a Packard cell harvester, washed with 2.5 mL ice-cold buffer, and radioactivity was determined using a Packard TopCount Microplate beta counter. IC50 values were determined by nonlinear regression in Microsoft® Excel or Assay Explorer. K, values were calculated from the IC50s using the Cheng-Prusoff equation, where Ki=IC50/(1+[Ligand]/KD) and are shown in Table 1.
With `Fc1ccc(-c2cnc(N3CC4CC5CC3CN(C5)C4)s2)cc1` (stereo not shown) [Example 110, 4-[5-(4-fluorophenyl)-1,3-thiazol-2-yl]-1,4-diazatricyclo[4.3.1.1^3,8]undecane], the pKi is 7.27. `c1cc2cc(-c3ccc(N4CC5CC6CC4CN(C6)C5)nn3)ccc2s1` (stereo not shown) [Example 8, 4-[6-(1-benzothien-5-yl)pyridazin-3-yl]-1,4-diazatricyclo[4.3.1.1^3,8]undecane] gave a pKi of 8.46.

For `COc1ccc(-c2cnc(N3CC4CC5CC3CN(C5)C4)s2)cc1` (stereo not shown) [Example 105, 4-[5-(4-methoxyphenyl)-1,3-thiazol-2-yl]-1,4-diazatricyclo[4.3.1.1^3,8]undecane], the pKi is 6.87. Molecule `Fc1cccc(-c2cnc(N3CC4CC5CC3CN(C5)C4)s2)c1` (stereo not shown) [Example 108, 4-[5-(3-fluorophenyl)-1,3-thiazol-2-yl]-1,4-diazatricyclo[4.3.1.1^3,8]undecane] showed a pKi of 7.42. As to `O=C(c1ccc2[nH]ccc2c1)N1CC2CC3CC1CN(C3)C2` (stereo not shown) [Example 37, 4-(1H-indol-5-ylcarbonyl)-1,4-diazatricyclo[4.3.1.1^3,8]undecane], the pKi was < 5.00. `O=C(c1cc2ccsc2cn1)N1CC2CC3CC1CN(C3)C2` (stereo not shown) [Example 3, 4-(thieno[2,3-c]pyridin-5-ylcarbonyl)-1,4-diazatricyclo[4.3.1.1^3,8]undecane]: the negative-log Ki (pKi) is 7.94. Regarding `O=C(c1n[nH]c2ccccc12)N1CC2CC3CC1CN(C3)C2` (stereo not shown) [Example 57, 4-(1H-indazol-3-ylcarbonyl)-1,4-diazatricyclo[4.3.1.1^3,8]undecane], the pKi was 7.63. For `Clc1ccc2nc(N3CC4CC5CC3CN(C5)C4)sc2c1` (stereo not shown) [Example 111, 4-(6-chloro-1,3-benzothiazol-2-yl)-1,4-diazatricyclo[4.3.1.1^3,8]undecane], the pKi is 6.94.

`c1cc(-c2cncc(N3CC4CC5CC3CN(C5)C4)c2)c2cc[nH]c2c1` (stereo not shown) [Example 104, 4-[5-(1H-indol-4-yl)pyridin-3-yl]-1,4-diazatricyclo[4.3.1.1^3,8]undecane] had a pKi of 7.58. Regarding “4-[5-(3,4-difluorophenyl)pyridin-3-yl]-1,4-diazatricyclo[4.3.1.1^3s]undecane [Example 99]”, the pKi is < 5.00.

Molecule `O=C(c1ccc2sccc2n1)N1CC2CC3CC1CN(C3)C2` (stereo not shown) [Example 4, 4-(thieno[3,2-b]pyridin-5-ylcarbonyl)-1,4-diazatricyclo[4.3.1.1^3,8]undecane] showed a pKi of 6.34. Regarding `Cc1ccc(-c2cnc(N3CC4CC5CC3CN(C5)C4)s2)cc1` (stereo not shown) [Example 106, 4-[5-(4-methylphenyl)-1,3-thiazol-2-yl]-1,4-diazatricyclo[4.3.1.1^3,8]undecane], the pKi is 7.58. `Clc1ccc2nc(N3CC4CC5CC3CN(C5)C4)oc2c1` (stereo not shown) [Example 112, 4-(6-chloro-1,3-benzoxazol-2-yl)-1,4-diazatricyclo[4.3.1.1^3,8]undecane] gave a pKi of 7.45. As for `c1ccc2sc(N3CC4CC5CC3CN(C5)C4)nc2c1` (stereo not shown) [Example 113, 4-(1,3-benzothiazol-2-yl)-1,4-diazatricyclo[4.3.1.1^3,8]undecane], the pKi is < 5.00.

Molecule `O=S1(=O)c2ccccc2-c2ccc(N3CC4CC5CC3CN(C5)C4)cc21` (stereo not shown) [Example 5, 4-(5,5-dioxidodibenzo[b,d]thien-3-yl)-1,4-diazatricyclo[4.3.1.1^3,8]undecane] showed a pKi of 8.64. `O=C1NC2CC3CC1CN(C3)C2` (stereo not shown) [Example 1, 1,4-diazatricyclo[4.3.1.1^3,8]undecan-5-one]: the pKi is 6.15.
